Reference: the supplement of paper PMC10307832

Columns and labels:
Assay in all cases: relative viability (nuclei count vs DMSO), 5 days (fraction); higher = more cells survive
A-427 = tested on: A-427
Outline: (§1)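 For relative viability, nuclei counts in treated wells were divided by those in vehicle wells. Lung cancer cell lines had been pin-tool dosed in 1536-well plates the day after seeding and cultured for 5 days, then fixed and stained in one step (final 0.05% Triton X-100, 1% formaldehyde, 1 ug/ml Hoechst) and imaged at 4×. Doses were one drug alone or a fixed anchor-drug dose plus five library-drug doses (not always all listed) in √10 steps, and values are duplicate-plate medians.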

ABC-1 = tested on: ABC-1
Outline: as §1

COR-L23 = tested on: COR-L23
Outline: as §1

EMC-BAC-2 = tested on: EMC-BAC-2
Outline: as §1

HARA = tested on: HARA
Outline: as §1

HOP-62 = tested on: HOP-62
Outline: as §1

LK-2 = tested on: LK-2
Outline: as §1

LXF-289 = tested on: LXF-289
Outline: as §1

NCI-H1792 = tested on: NCI-H1792
Outline: as §1

NCI-H1793 = tested on: NCI-H1793
Outline: as §1

NCI-H1944 = tested on: NCI-H1944
Outline: as §1

NCI-H1993 = tested on: NCI-H1993
Outline: as §1

NCI-H2009 = tested on: NCI-H2009
Outline: as §1

NCI-H2170 = tested on: NCI-H2170
Outline: as §1

NCI-H2228 = tested on: NCI-H2228
Outline: as §1

NCI-H3122 = tested on: NCI-H3122
Outline: as §1

NCI-H596 = tested on: NCI-H596
Outline: as §1

NCI-H727 = tested on: NCI-H727
Outline: as §1

PC-3 [JPC-3] = tested on: PC-3 [JPC-3]
Outline: as §1

SK-LU-1 = tested on: SK-LU-1
Outline: as §1

SK-MES-1 = tested on: SK-MES-1
Outline: as §1

SW 1573 = tested on: SW 1573
Outline: as §1

SW 900 = tested on: SW 900
Outline: as §1

Molecule `O=C(O)c1ccc(-c2c[nH]c3ncc(-c4ccccc4)cc23)cc1C1CCCC1` + CCNC(=O)c1noc(-c2cc(C(C)C)c(O)cc2O)c1-c1ccc(CN2CCOCC2)cc1 [Luminespib] (partner 0.01 µM) has a relative viability (A-427; first compound 0.04 µM) of 0.956, a relative viability (A-427; first compound 0.1265 µM) of 1.01 and a relative viability (A-427; first compound 0.4 µM) of 0.647. For the same molecule, the relative viability (A-427; first compound 1.265 µM) was 0.577, the relative viability (ABC-1; first compound 0.1265 µM) was 0.572 and the relative viability (ABC-1; first compound 1.265 µM) was 0.509. It also gave a relative viability (COR-L23; first compound 0.04 µM) of 0.656, a relative viability (COR-L23; first compound 0.1265 µM) of 0.742 and a relative viability (COR-L23; first compound 0.4 µM) of 0.612. The relative viability (COR-L23; first compound 1.265 µM) was 0.407, the relative viability (EMC-BAC-2; first compound 0.04 µM) was 1.19 and the relative viability (EMC-BAC-2; first compound 0.1265 µM) was 1.16. It also gave a relative viability (EMC-BAC-2; first compound 0.4 µM) of 1.13, a relative viability (EMC-BAC-2; first compound 1.265 µM) of 0.975 and a relative viability (HARA; first compound 0.04 µM) of 0.767. For the same molecule, the relative viability (HARA; first compound 0.1265 µM) was 0.748, the relative viability (HARA; first compound 0.4 µM) was 0.141 and the relative viability (HARA; first compound 1.265 µM) was 0.418. For the same molecule, the relative viability (HOP-62; first compound 0.04 µM) was 0.989, the relative viability (HOP-62; first compound 0.1265 µM) was 0.997 and the relative viability (HOP-62; first compound 0.4 µM) was 0.86. It also gave a relative viability (HOP-62; first compound 1.265 µM) of 0.737, a relative viability (LK-2; first compound 0.04 µM) of 0.157 and a relative viability (LK-2; first compound 0.1265 µM) of 0.187. It also gave a relative viability (LK-2; first compound 0.4 µM) of 0.161, a relative viability (LK-2; first compound 1.265 µM) of 0.168 and a relative viability (LXF-289; first compound 0.04 µM) of 0.749. The relative viability (LXF-289; first compound 0.1265 µM) was 0.614, the relative viability (LXF-289; first compound 0.4 µM) was 0.484 and the relative viability (LXF-289; first compound 1.265 µM) was 0.171. The relative viability (NCI-H1792; first compound 0.1265 µM) was 0.477, the relative viability (NCI-H1792; first compound 0.4 µM) was 0.351 and the relative viability (NCI-H1792; first compound 1.265 µM) was 0.519. It also gave a relative viability (NCI-H1793; first compound 0.04 µM) of 0.19, a relative viability (NCI-H1793; first compound 0.1265 µM) of 0.166 and a relative viability (NCI-H1793; first compound 0.4 µM) of 0.151. For the same molecule, the relative viability (NCI-H1793; first compound 1.265 µM) was 0.148, the relative viability (NCI-H1944; first compound 0.04 µM) was 0.687 and the relative viability (NCI-H1944; first compound 0.1265 µM) was 0.836. It also gave a relative viability (NCI-H1944; first compound 0.4 µM) of 0.716, a relative viability (NCI-H1944; first compound 1.265 µM) of 0.702 and a relative viability (NCI-H1993; first compound 0.04 µM) of 0.912. For the same molecule, the relative viability (NCI-H1993; first compound 0.1265 µM) was 0.831, the relative viability (NCI-H1993; first compound 0.4 µM) was 0.795 and the relative viability (NCI-H1993; first compound 1.265 µM) was 0.612. For the same molecule, the relative viability (NCI-H2009; first compound 0.04 µM) was 1.05, the relative viability (NCI-H2009; first compound 0.1265 µM) was 1.03 and the relative viability (NCI-H2009; first compound 0.4 µM) was 0.963. The relative viability (NCI-H2009; first compound 1.265 µM) was 0.75, the relative viability (NCI-H2170; first compound 0.04 µM) was 0.745 and the relative viability (NCI-H2170; first compound 0.1265 µM) was 0.804. It also gave a relative viability (NCI-H2170; first compound 0.4 µM) of 0.794, a relative viability (NCI-H2170; first compound 1.265 µM) of 0.491 and a relative viability (NCI-H2228; first compound 0.04 µM) of 0.144. The relative viability (NCI-H2228; first compound 0.1265 µM) was 0.188, the relative viability (NCI-H2228; first compound 0.4 µM) was 0.0961 and the relative viability (NCI-H2228; first compound 1.265 µM) was 0.0961. It also gave a relative viability (NCI-H3122; first compound 0.04 µM) of 0.0905, a relative viability (NCI-H3122; first compound 0.1265 µM) of 0.0913 and a relative viability (NCI-H3122; first compound 0.4 µM) of 0.0809. For the same molecule, the relative viability (NCI-H3122; first compound 1.265 µM) was 0.0888, the relative viability (NCI-H596; first compound 0.04 µM) was 1 and the relative viability (NCI-H596; first compound 0.1265 µM) was 1.03. For the same molecule, the relative viability (NCI-H596; first compound 0.4 µM) was 0.909, the relative viability (NCI-H596; first compound 1.265 µM) was 0.973 and the relative viability (NCI-H727; first compound 0.04 µM) was 0.325. The relative viability (NCI-H727; first compound 0.1265 µM) was 0.41, the relative viability (NCI-H727; first compound 0.4 µM) was 0.638 and the relative viability (NCI-H727; first compound 1.265 µM) was 0.281. It also gave a relative viability (PC-3 [JPC-3]; first compound 0.04 µM) of 0.678, a relative viability (PC-3 [JPC-3]; first compound 0.1265 µM) of 0.761 and a relative viability (PC-3 [JPC-3]; first compound 0.4 µM) of 0.619. The relative viability (PC-3 [JPC-3]; first compound 1.265 µM) was 0.569, the relative viability (SK-LU-1; first compound 0.04 µM) was 0.204 and the relative viability (SK-LU-1; first compound 0.1265 µM) was 0.196. It also gave a relative viability (SK-LU-1; first compound 0.4 µM) of 0.231, a relative viability (SK-LU-1; first compound 1.265 µM) of 0.179 and a relative viability (SK-MES-1; first compound 0.04 µM) of 0.81. The relative viability (SK-MES-1; first compound 0.1265 µM) was 0.973, the relative viability (SK-MES-1; first compound 0.4 µM) was 0.596 and the relative viability (SK-MES-1; first compound 1.265 µM) was 0.35. The relative viability (SW 1573; first compound 0.04 µM) was 0.563, the relative viability (SW 1573; first compound 0.1265 µM) was 0.486 and the relative viability (SW 1573; first compound 0.4 µM) was 0.292. The relative viability (SW 1573; first compound 1.265 µM) was 0.383, the relative viability (SW 900; first compound 0.04 µM) was 0.185 and the relative viability (SW 900; first compound 0.1265 µM) was 0.171. For the same molecule, the relative viability (SW 900; first compound 0.4 µM) was 0.175 and the relative viability (SW 900; first compound 1.265 µM) was 0.156.
